Data set [1] has as its system JAK-STAT signalling in HeLa cells. In words: JAK-STAT signalling assay (OSM-triggered pSTAT1(2)-luciferase reporter in HeLa cells). As to conditions: Homo sapiens; HeLa cells, OSM-triggered pSTAT1(2)-luciferase reporter; read-out: STAT signalling EC50. The data set is classed as cell-based. The method in brief: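 Read-out is oncostatin M–driven pSTAT1(2)-luciferase activity, corrected by co-transfected LacZ β-galactosidase, in transiently transfected HeLa cells cultured overnight at 37 °C, 10% CO2. Inhibition percentages against positive and negative controls were plotted across doses to derive EC50.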

A short description of data set [2]: Caco2 permeability (bi-directional). Type of data set: in vitro ADME, human. As to conditions: human, pH 7.4; for Papp A→B at 1 h, 10 µM: Caco-2, apical to basolateral, read-out: Papp (A2B); for efflux ratio at 1 h, 10 µM: Caco-2, ratio of PappB>A/PappA>B. The protocol: Bi-directional Caco-2 assays were performed as described below.
2×10^5 cells/well were seeded in plating medium consisting of DMEM+GlutaMAXI+1% NEAA+10% FBS (FetalClone II)+1% Pen/Strep. The medium was changed every 2-3 days.
50 μM Lucifer Yellow (Sigma) was added to the donor buffer in all wells to assess integrity of the cell layers by monitoring Lucifer Yellow permeation. As Lucifer Yellow (LY) cannot freely permeate lipophilic barriers, a high degree of LY transport indicates poor integrity of the cell layer.
After a 1 hour incubation at 37° C. while shaking at an orbital shaker at 150 rpm, 70 μL aliquots were taken from both apical (A) and basal (B) chambers and added to 100 μL1 50:50 acetonitrile:water solution containing analytical internal standard (0.5 μM carbamazepine) in a 96 well plate.
Concentrations of compound in the samples were measured by high performance liquid-chromatography/mass spectroscopy (LC-MS/MS).
The Efflux ratios, as an indication of active efflux from the apical cell surface, were calculated using the ratio of PappB>A/PappA>B.
The following assay acceptance criteria were used:
Lucifer yellow permeability: ≤100 nm/s

The subject of another data set is MMP13 in SW1353 cells. In words: OSM/IL-1β signaling assay (MMP13 levels in SW1353 cells).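 Note: secreted MMP13 captured by antibody, activated with APMA and its activity read by fluorescence, inhibition scaled between vehicle-treated triggered wells (0%) and untriggered wells (100%).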 Type of data set: cell-based. As to conditions: Homo sapiens; SW1353 cells, OSM and IL-1β triggered, MMP13 levels 48 hours after triggering; read-out: MMP13 EC50.
The target in data set [3] is Recombinant human JAK3 catalytic domain (Homo sapiens (Human), UniProt P52333). In words: JAK3 inhibition assay. The data set is classed as biochemical. As to conditions: semi-quantitative score. The method, then:
Plates were washed 6 times with 300 μL per well of a 75 mM phosphoric acid solution and the bottom of the plates was sealed. 40 μL/well of Microscint-20 was added, the top of the plates was sealed and readout was performed using the Topcount (Perkin Elmer). Kinase activity was calculated by subtracting counts per minute (cpm) obtained in the presence of a positive control inhibitor (10 μM staurosporine) from cpm obtained in the presence of vehicle. The ability of a test compound to inhibit this activity was determined as: Percentage inhibition=((cpm determined for sample with test compound present−cpm determined for sample with positive control inhibitor) divided by (cpm determined in the presence of vehicle−cpm determined for sample with positive control inhibitor))*100%.
Dose dilution series were prepared for the compounds enabling the testing of dose-response effects in the JAK3 assay and the calculation of the IC50 for each compound.

Data set [4] concerns the target Recombinant human JAK1 catalytic domain (Homo sapiens (Human), UniProt P23458). In words: JAK1 inhibition assay. The data set is classed as biochemical. The method in brief: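 IC50 values come from dose-response series, with each point expressed as percent inhibition of cpm. Vehicle sets full activity and 10 μM staurosporine sets background. Incorporated radioactivity counted by scintillation after washing with 75 mM phosphoric acid.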

The nature of data set [5]: Microsomal stability, human liver microsomes. Type of data set: in vitro ADME. As to conditions: percentage of compound remaining after 60 minutes, 3 μM compound. The method in brief: (§1)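 Percent parent remaining after 60 min was determined by LCMS against a time-zero sample quenched before microsome addition. Incubations ran at 37°C with liver microsomes and a G6PDH-based NADPH-regenerating cofactor mix. Quench was MeOH or ACN (1:1).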

Data set [6] is described as follows: Microsomal stability, rat liver microsomes. As to conditions: percentage of compound remaining after 60 minutes, 3 μM compound. Type of data set: in vitro ADME. The method in brief: as §1
The target in data set [7] is Recombinant human JAK2 catalytic domain (Homo sapiens (Human), UniProt O60674). The experiment in a line: JAK2 inhibition assay. Type of data set: biochemical. As to conditions: semi-quantitative score. In a few lines:
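Activity was taken as vehicle cpm minus cpm with 10 μM staurosporine, and inhibition was expressed on that scale. Incubation was 90 min at 30 °C, followed by acid quench, phosphoric acid washes and Microscint counting. Compounds were tested as dose series to obtain IC50.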

Where two headings read alike, the source gives them in different places.

Recombinant human JAK2 catalytic domain, sequence (O60674 808-1132): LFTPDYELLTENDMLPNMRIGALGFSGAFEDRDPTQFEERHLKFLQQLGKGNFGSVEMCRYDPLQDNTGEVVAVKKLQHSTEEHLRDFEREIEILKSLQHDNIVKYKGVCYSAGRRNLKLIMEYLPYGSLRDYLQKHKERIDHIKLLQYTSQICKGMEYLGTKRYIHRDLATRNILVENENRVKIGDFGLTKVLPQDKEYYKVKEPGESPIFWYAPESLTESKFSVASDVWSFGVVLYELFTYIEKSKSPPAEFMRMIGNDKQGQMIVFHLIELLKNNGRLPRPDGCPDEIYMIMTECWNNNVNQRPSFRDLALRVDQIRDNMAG
Recombinant human JAK3 catalytic domain, sequence (P52333 781-1124): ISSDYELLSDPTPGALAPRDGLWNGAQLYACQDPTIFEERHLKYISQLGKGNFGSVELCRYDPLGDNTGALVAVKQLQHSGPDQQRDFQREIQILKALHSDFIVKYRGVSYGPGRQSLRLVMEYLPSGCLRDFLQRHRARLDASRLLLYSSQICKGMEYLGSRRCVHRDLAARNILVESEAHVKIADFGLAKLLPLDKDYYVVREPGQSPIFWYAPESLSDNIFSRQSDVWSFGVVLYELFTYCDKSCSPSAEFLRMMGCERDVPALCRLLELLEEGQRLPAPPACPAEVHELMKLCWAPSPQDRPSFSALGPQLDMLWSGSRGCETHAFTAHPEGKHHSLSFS
Recombinant human JAK1 catalytic domain, sequence (P23458 850-1154): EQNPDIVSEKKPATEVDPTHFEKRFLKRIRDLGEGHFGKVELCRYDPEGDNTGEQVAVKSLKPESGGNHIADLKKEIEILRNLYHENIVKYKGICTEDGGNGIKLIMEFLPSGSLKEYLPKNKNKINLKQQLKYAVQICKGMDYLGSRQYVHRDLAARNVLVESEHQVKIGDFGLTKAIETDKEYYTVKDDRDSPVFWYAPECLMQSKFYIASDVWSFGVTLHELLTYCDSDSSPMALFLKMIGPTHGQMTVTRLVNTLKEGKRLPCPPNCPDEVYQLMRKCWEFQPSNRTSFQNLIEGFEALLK

Consider `O=C(Nc1nc2cccc(-c3ccc(NS(=O)(=O)CCc4ccccc4)cc3)n2n1)C1CC1` [Compound 76, N-(5-(4-(2-phenylethylsulfonamido)phenyl)-[1,2,4]triazolo[1,5-a]pyridin-2-yl)cyclopropanecarboxamide], for which the EC50 in data set [1] is 501 to 1000 nM; in the data set on MMP13 in SW1353 cells it was 1 to 500 nM. For the same molecule, the Papp A→B at 1 h, 10 µM in data set [2] came out at 8.14 ×10⁻⁶ cm/s. Moreover, the efflux ratio at 1 h, 10 µM in data set [2] worked out at 5.09. Moreover, the IC50 in data set [3] is 101 to 500 nM; in data set [4] (semi-quantitative score), less than 100 nM; in data set [7], less than 100 nM. Besides, in data set [5], the “Microsomal Stability Human (%)” value is “* (* 0-25)”. The “Microsomal Stability Rat (%)” value in data set [6] is “* (* 0-25)”.
Take `O=C(CCOc1ccccc1)Nc1ccc(-c2cccc3nc(NC(=O)C4CC4)nn23)cc1` [Compound 108]: the EC50 (in data set [1]; in the data set with MMP13 in SW1353 cells) was 501 to 1000 nM in each case. For the same molecule, the Papp A→B at 1 h, 10 µM in data set [2] came to 27.7 ×10⁻⁶ cm/s. For the same molecule, the efflux ratio at 1 h, 10 µM in data set [2] worked out at 1.4. Further, the IC50 is more than 1000 nM in data set [3], less than 100 nM in data set [4] (semi-quantitative score) and less than 100 nM in data set [7]. Also, the “Microsomal Stability Human (%)” value in data set [5] was “* (* 0-25)”. The “Microsomal Stability Rat (%)” value in data set [6] is on record as “* (* 0-25)”.
On to `O=C(Nc1nc2cccc(-c3ccc(CN4CCC(F)(F)CC4)cc3)n2n1)C1CC1` [Compound 234, Cyclopropanecarboxylic acid {5-[4-(4,4-difluoro-piperidin-1-ylmethyl)-phenyl]-[1,2,4]triazolo[1,5-a]pyridin-2-yl}-amide], for which the EC50 in data set [1] lay in the range of 501 to 1000 nM; in the data set on MMP13 in SW1353 cells, 1 to 500 nM. Besides, the Papp A→B at 1 h, 10 µM in data set [2] is 36.5 ×10⁻⁶ cm/s. Also, in data set [2], the efflux ratio at 1 h, 10 µM worked out at 0.9. Further, the IC50 in data set [3] was 101 to 500 nM; in data set [4] (semi-quantitative score), less than 100 nM; in data set [7], less than 100 nM. Further, the “Microsomal Stability Human (%)” value in data set [5] is on record as “** (** 26-50)”. The “Microsomal Stability Rat (%)” value in data set [6] is “** (** 26-50)”.
As to `O=C(Nc1nc2cccc(-c3ccc(CC(=O)N4CCC(C(F)(F)F)CC4)cc3)n2n1)C1CC1` [Compound 319, Cyclopropanecarboxylic acid (5-{4-[2-oxo-2-(4-trifluoromethyl-piperidin-1-yl)-ethyl]-phenyl}-[1,2,4]triazolo[1,5-a]pyridin-2 yl)-amide], the figures for the EC50 (in data set [1]; with MMP13 in SW1353 cells) were 501 to 1000 nM and more than 1000 nM, respectively. The Papp A→B at 1 h, 10 µM in data set [2] was 11.2 ×10⁻⁶ cm/s. Also, the IC50 in data set [3] is 101 to 500 nM; in data set [4] (semi-quantitative score) it was less than 100 nM. Moreover, the “Microsomal Stability Human (%)” value in data set [5] was “* (* 0-25)”. The “Microsomal Stability Rat (%)” value in data set [6] is on record as “* (* 0-25)”.
For `O=C(Nc1nc2cccc(-c3ccc(NS(=O)(=O)CCc4cccc(F)c4)cc3)n2n1)C1CC1` [Compound 88, N-(5-(4-(2-(3-fluorophenyl)ethylsulfonamido)phenyl)-[1,2,4]triazolo[l,5-a]pyridin-2-yl)cyclopropanecarboxamide], the EC50 (in data set [1]; in the data set with MMP13 in SW1353 cells) was more than 1000 nM throughout. For the same molecule, the results for the IC50 in data set [3], in data set [4] (semi-quantitative score) and in data set [7] were more than 1000 nM, less than 100 nM and 101 to 500 nM, respectively. Also, the “Microsomal Stability Human (%)” value in data set [5] is “* (* 0-25)”. In data set [6], the “Microsomal Stability Rat (%)” value is “* (* 0-25)”.
Consider `CCCCN(CCCN1CCOCC1)C(=O)c1ccc(-c2cccc3nc(NC(=O)C4CC4)nn23)cc1` [Compound 90, N-butyl-4-(2-(cyclopropanecarboxamido)-[1,2,4]triazolo[1,5-a]pyridin-5-yl)-N-(3-morpholinopropyl)benzamide], for which the EC50 (in data set [1]; in the data set with MMP13 in SW1353 cells) was more than 1000 nM in each case. Moreover, the IC50 is more than 1000 nM in data set [3], less than 100 nM in data set [4] (semi-quantitative score) and 501 to 1000 nM in data set [7]. In addition, in data set [5], the “Microsomal Stability Human (%)” value is listed as “** (** 26-50)”. Besides, in data set [6], the “Microsomal Stability Rat (%)” value is recorded as “** (** 26-50)”.
Take `O=C(Nc1nc2cccc(-c3ccc(C(=O)N4CCCC4)cc3)n2n1)C1CC1` [Compound 19, N-(5-(4-(pyrrolidine-1-carbonyl)phenyl)-[1,2,4]triazolo[1,5-a]pyridin-2-yl)cyclopropanecarboxamide]: the EC50 (in data set [1]; with MMP13 in SW1353 cells) was more than 1000 nM throughout. For the same molecule, the concentration for half-maximal inhibition (IC50) in data set [3] is more than 1000 nM; in data set [4] (semi-quantitative score), less than 100 nM; in data set [7], 101 to 500 nM. Further, in data set [5], the “Microsomal Stability Human (%)” value was “**** (**** 76-100)”. In data set [6], the “Microsomal Stability Rat (%)” value was “*** (*** 51-75)”.
In the case of `CCCc1ccc(S(=O)(=O)Nc2ccc(-c3cccc4nc(NC(=O)C5CC5)nn34)cc2)cc1` [Compound 85, N-(5-(4-(4-propylphenylsulfonamido)phenyl)-[1,2,4]triazolo[1,5-a]pyridin-2-yl)cyclopropanecarboxamide], the EC50 (in data set [1]; in the data set with MMP13 in SW1353 cells) was more than 1000 nM each time. Further, the IC50 was more than 1000 nM in data set [3], less than 100 nM in data set [4] (semi-quantitative score) and 101 to 500 nM in data set [7]. Further, the “Microsomal Stability Human (%)” value in data set [5] is given as “* (* 0-25)”. Also, the “Microsomal Stability Rat (%)” value in data set [6] is “* (* 0-25)”.
On to `O=C(NCCCc1ccccc1)c1ccc(-c2cccc3nc(NC(=O)C4CC4)nn23)cc1` [Compound 114, 4-(2-(cyclopropanecarboxamido)-[1,2,4]triazolo[1,5-a]pyridin-5-yl)-N-(3-phenylpropyl)benzamide], for which the EC50 in data set [1] is more than 1000 nM; with MMP13 in SW1353 cells, 501 to 1000 nM. The IC50 in data set [3] is more than 1000 nM; in data set [4] (semi-quantitative score), less than 100 nM; in data set [7] it was 101 to 500 nM. The “Microsomal Stability Human (%)” value in data set [5] is “* (* 0-25)”. Further, the “Microsomal Stability Rat (%)” value in data set [6] was “* (* 0-25)”.
On to `O=C(Nc1nc2cccc(-c3ccc(NS(=O)(=O)Cc4ccccc4)cc3)n2n1)C1CC1` [Compound 77, N-(5-(4-(phenylmethylsulfonamido)phenyl)-[1,2,4]triazolo[1,5-a]pyridin-2-yl)cyclopropanecarboxamide], for which the EC50 in data set [1] is more than 1000 nM; in the data set on MMP13 in SW1353 cells, 1 to 500 nM. The IC50 in data set [3] was more than 1000 nM; in data set [4] (semi-quantitative score) it was less than 100 nM; in data set [7], 101 to 500 nM. The “Microsomal Stability Human (%)” value in data set [5] is “** (** 26-50)”. Also, the “Microsomal Stability Rat (%)” value in data set [6] was “** (** 26-50)”.
Consider `CN(C(=O)c1ccc(-c2cccc3nc(NC(=O)C4CC4)nn23)cc1)c1ccccc1` [Compound 30, 4-(2-(cyclopropanecarboxamido)-[1,2.4]triazolo[1,5-a]pyridin-5-yl)-N-methyl-N-phenylbenzamide], for which the EC50 in data set [1] was 501 to 1000 nM; with MMP13 in SW1353 cells it was more than 1000 nM. Besides, the IC50 in data set [3] is more than 1000 nM; in data set [4] (semi-quantitative score), less than 100 nM; in data set [7] it was less than 100 nM. The “Microsomal Stability Human (%)” value in data set [5] is listed as “* (* 0-25)”. Moreover, the “Microsomal Stability Rat (%)” value in data set [6] is on record as “* (* 0-25)”.
As to `NC(=O)c1ccc(COc2ccc(-c3cccc4nc(NC(=O)C5CC5)nn34)cc2)cn1` [Compound 192, 5-{4-[2-(Cyclopropanecarbonyl-amino)-[1,2,4]triazolo[1,5-a]pyridin-5-yl]-phenoxymethyl}-pyridine-2-carboxylic Acid Amide], the EC50 in data set [1] is 101 to 500 nM; in the data set on MMP13 in SW1353 cells, 501 to 1000 nM. For the same molecule, in data set [2], the efflux ratio at 1 h, 10 µM worked out at 2. In addition, the IC50 in data set [3] was 101 to 500 nM; in data set [4], less than 100 nM. Further, the “Microsomal Stability Human (%)” value in data set [5] is “**** (**** 76-100)”. Also, the “Microsomal Stability Rat (%)” value in data set [6] is “**** (**** 76-100)”.

(Values after patent publication US10206907B2, “Compounds useful for the treatment of degenerative and inflammatory diseases” (GALAPAGOS NV, priority 2008, dated 2019).)
